Source: PubChem BioAssay (NCI)
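All cell lines were grown in 96-well plates and treated with compound for 48 hours. TGI: total growth inhibition.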

Assays:
Assay in all cases: growth of human tumour cells (NCI), 48 h
[1] = tested on: IGROV1 ovarian
[2] = tested on: K-562 leukemia
[3] = tested on: OVCAR-5 ovarian
[4] = tested on: UACC-257 melanoma
[5] = tested on: HOP-92 NSCLC
[6] = tested on: UO-31 renal
[7] = tested on: SK-OV-3 ovarian
[8] = tested on: MDA-N
[9] = tested on: MALME-3M melanoma
[10] = tested on: NCI-H460 lung
[11] = tested on: SNB-75 CNS
[12] = tested on: SW-620 colon
[13] = tested on: U251 CNS
[14] = tested on: OVCAR-4 ovarian
[15] = tested on: T-47D breast
[16] = tested on: 786-0 renal
[17] = tested on: OVCAR-8 ovarian
[18] = tested on: HCT-116 colon
[19] = tested on: HL-60(TB) leukemia
[20] = tested on: ACHN renal
[21] = tested on: A498 renal
[22] = tested on: BT-549 breast
[23] = tested on: NCI-H226 lung
[24] = tested on: SK-MEL-2 melanoma
[25] = tested on: RXF 393 renal
[26] = tested on: MDA-MB-231 breast
[27] = tested on: NCI-H23 lung
[28] = tested on: EKVX NSCLC
[29] = tested on: TK-10 renal
[30] = tested on: UACC-62 melanoma
[31] = tested on: KM12 colon
[32] = tested on: M14 melanoma
[33] = tested on: RPMI-8226 leukemia
[34] = tested on: SF-539 CNS
[35] = tested on: A549 NSCLC
[36] = tested on: HOP-62 NSCLC
[37] = tested on: SN12C renal
[38] = tested on: CCRF-CEM leukemia
[39] = tested on: HCT-15 colon
[40] = tested on: DU-145 prostate
[41] = tested on: HT29 colon
[42] = tested on: COLO 205 colon
[43] = tested on: MDA-MB-435
[44] = tested on: NCI-H522 lung
[45] = tested on: LOX IMVI melanoma
[46] = tested on: OVCAR-3 ovarian
[47] = tested on: SR leukemia
[48] = tested on: MOLT-4 leukemia
[49] = tested on: CAKI-1 renal
[50] = tested on: SNB-19 CNS
[51] = tested on: SF-268 CNS
[52] = tested on: PC-3 prostate
[53] = tested on: SF-295 CNS
[54] = tested on: HS 578T breast
[55] = tested on: MCF7 breast
[56] = tested on: HCC-2998 colon
[57] = tested on: SK-MEL-28 melanoma
[58] = tested on: NCI/ADR-RES ovarian
[59] = tested on: SK-MEL-5 melanoma

Q: With `COC(=O)C1C(O)CCC2CN3CCc4c([nH]c5cccc(OC)c45)C3CC21` (centres undefined) as the molecule, how does the TGI [1] read?
A: > 100 µM

Q: And the TGI [2]?
A: > 100 µM

Q: What about the TGI [3] of the same molecule?
A: > 100 µM

Q: What about the TGI [4] of the same molecule?
A: > 100 µM

Q: What about the TGI [5] of the same molecule?
A: > 100 µM

Q: And the TGI [6]?
A: > 100 µM

Q: And the TGI [7]?
A: > 100 µM

Q: And the TGI [8]?
A: > 100 µM

Q: What about the TGI [9] of the same molecule?
A: > 100 µM

Q: And the TGI [10]?
A: > 100 µM

Q: And the TGI [11]?
A: > 100 µM

Q: And the TGI [12]?
A: > 100 µM

Q: And the TGI [13]?
A: > 100 µM

Q: What about the TGI [14] of the same molecule?
A: > 100 µM

Q: And the TGI [15]?
A: > 100 µM

Q: And the TGI [16]?
A: > 100 µM

Q: What about the TGI [17] of the same molecule?
A: > 100 µM

Q: And the TGI [18]?
A: > 100 µM

Q: What about the TGI [19] of the same molecule?
A: > 100 µM

Q: What about the TGI [20] of the same molecule?
A: > 100 µM

Q: What about the TGI [21] of the same molecule?
A: > 100 µM

Q: What about the TGI [22] of the same molecule?
A: > 100 µM

Q: What about the TGI [23] of the same molecule?
A: > 100 µM

Q: What about the TGI [24] of the same molecule?
A: > 100 µM

Q: What about the TGI [25] of the same molecule?
A: > 100 µM

Q: What about the TGI [26] of the same molecule?
A: > 100 µM

Q: What about the TGI [27] of the same molecule?
A: > 100 µM

Q: And the TGI [28]?
A: > 100 µM

Q: And the TGI [29]?
A: > 100 µM

Q: And the TGI [30]?
A: > 100 µM

Q: What about the TGI [31] of the same molecule?
A: > 100 µM

Q: What about the TGI [32] of the same molecule?
A: > 100 µM

Q: And the TGI [33]?
A: > 100 µM

Q: And the TGI [34]?
A: > 100 µM

Q: What about the TGI [35] of the same molecule?
A: > 100 µM

Q: And the TGI [36]?
A: > 100 µM

Q: And the TGI [37]?
A: > 100 µM

Q: What about the TGI [38] of the same molecule?
A: > 100 µM

Q: What about the TGI [39] of the same molecule?
A: > 100 µM

Q: What about the TGI [40] of the same molecule?
A: > 100 µM

Q: And the TGI [41]?
A: > 100 µM

Q: And the TGI [42]?
A: > 100 µM

Q: And the TGI [43]?
A: > 100 µM

Q: And the TGI [44]?
A: > 100 µM

Q: What about the TGI [45] of the same molecule?
A: > 100 µM

Q: What about the TGI [46] of the same molecule?
A: > 100 µM

Q: And the TGI [47]?
A: > 100 µM

Q: And the TGI [48]?
A: > 100 µM

Q: What about the TGI [49] of the same molecule?
A: > 100 µM

Q: And the TGI [50]?
A: > 100 µM

Q: What about the TGI [51] of the same molecule?
A: > 100 µM

Q: And the TGI [52]?
A: > 100 µM

Q: What about the TGI [53] of the same molecule?
A: > 100 µM

Q: And the TGI [54]?
A: > 100 µM

Q: And the TGI [55]?
A: > 100 µM

Q: What about the TGI [56] of the same molecule?
A: > 100 µM

Q: What about the TGI [57] of the same molecule?
A: > 100 µM

Q: `Nc1nc(N)c2c(n1)NC(c1ccccc1)CC(/C=C/c1ccc(Cl)cc1)=N2` (centres undefined) was tested. Which TGI [1] did it give?
A: 7.67 µM

Q: What about the TGI [2] of the same molecule?
A: 9.61 µM

Q: What about the TGI [3] of the same molecule?
A: 32.5 µM

Q: What about the TGI [4] of the same molecule?
A: 7.78 µM

Q: And the TGI [5]?
A: 18.2 µM

Q: And the TGI [6]?
A: 23.4 µM

Q: And the TGI [7]?
A: 29.4 µM

Q: What about the TGI [8] of the same molecule?
A: 24.4 µM

Q: What about the TGI [9] of the same molecule?
A: 32.7 µM

Q: What about the TGI [10] of the same molecule?
A: 18 µM

Q: And the TGI [11]?
A: 33.9 µM

Q: What about the TGI [12] of the same molecule?
A: 26.8 µM

Q: And the TGI [13]?
A: > 100 µM

Q: And the TGI [14]?
A: 20.5 µM

Q: What about the TGI [15] of the same molecule?
A: 30.8 µM

Q: And the TGI [16]?
A: 12 µM

Q: And the TGI [17]?
A: 37.2 µM

Q: What about the TGI [18] of the same molecule?
A: 4.76 µM

Q: What about the TGI [19] of the same molecule?
A: 28.2 µM

Q: What about the TGI [20] of the same molecule?
A: 25.5 µM

Q: What about the TGI [21] of the same molecule?
A: 32.9 µM

Q: What about the TGI [22] of the same molecule?
A: 37.9 µM

Q: What about the TGI [23] of the same molecule?
A: 27.7 µM

Q: And the TGI [24]?
A: 42.7 µM

Q: What about the TGI [25] of the same molecule?
A: 16.7 µM

Q: What about the TGI [26] of the same molecule?
A: 18.4 µM

Q: What about the TGI [27] of the same molecule?
A: 16.1 µM

Q: What about the TGI [28] of the same molecule?
A: 17.3 µM

Q: And the TGI [29]?
A: 8.64 µM

Q: What about the TGI [30] of the same molecule?
A: 25 µM

Q: What about the TGI [31] of the same molecule?
A: 13.6 µM

Q: And the TGI [32]?
A: 28.3 µM

Q: And the TGI [33]?
A: 12.7 µM

Q: What about the TGI [34] of the same molecule?
A: 31.2 µM

Q: And the TGI [35]?
A: 60.8 µM

Q: And the TGI [36]?
A: 34 µM

Q: And the TGI [37]?
A: 23.6 µM

Q: And the TGI [38]?
A: 50.4 µM

Q: And the TGI [39]?
A: 23.3 µM

Q: And the TGI [40]?
A: 24.4 µM

Q: What about the TGI [41] of the same molecule?
A: 15.2 µM

Q: What about the TGI [42] of the same molecule?
A: 7.5 µM

Q: What about the TGI [43] of the same molecule?
A: 21.1 µM

Q: What about the TGI [44] of the same molecule?
A: 5.32 µM

Q: And the TGI [58]?
A: 11.3 µM

Q: What about the TGI [59] of the same molecule?
A: 23.4 µM

Q: What about the TGI [45] of the same molecule?
A: 13.4 µM

Q: And the TGI [46]?
A: 23.4 µM

Q: And the TGI [48]?
A: 12.6 µM

Q: What about the TGI [49] of the same molecule?
A: 26.4 µM

Q: And the TGI [50]?
A: 29.1 µM

Q: And the TGI [51]?
A: 44.1 µM

Q: And the TGI [52]?
A: 22 µM

Q: And the TGI [53]?
A: 36.2 µM

Q: And the TGI [54]?
A: 9.94 µM

Q: And the TGI [55]?
A: 16 µM

Q: And the TGI [57]?
A: 28.1 µM
